Results reported in patent US20210267203A1, “PESTICIDALLY ACTIVE AZOLE-AMIDE COMPOUNDS” (SYNGENTA PARTICIPATIONS AG, priority 2018, published 2021).

Key:
Assay type in all cases: in vivo
[1] = test system: Plutella xylostella (Diamondback Moth); assay: Example B14: activity against Plutella xylostella (diamondback moth), 96-well artificial diet; settings: 216 h, application rate 500 ppm, 9 days after infestation
Procedure: Example B14: Activity Against Plutella xylostella (Diamondback Moth)
96-well microtiter plates containing artificial diet were treated with aqueous test solutions, prepared from 10,000 ppm DMSO stock solutions, by a liquid handling robot. After drying, eggs (30 per well) were infested onto a netted lid which was suspended above the diet. The eggs hatch and L1 larvae move down to the diet. The samples were assessed for mortality 9 days after infestation.
The following compounds gave an effect of at least 80% average mortality at an application rate of 500 ppm: […]

[2] = test system: Plutella xylostella (Diamond Back Moth); assay: Example B5: Plutella xylostella (diamond back moth), artificial diet, 24-well, eggs; settings: 192 h, application rate 200 ppm, 8 days after infestation, read-out: effect in at least one of the two categories (mortality or growth inhibition)
Procedure: Example B5: Plutella xylostella (Diamond Back Moth)
24-well microtiter plates with artificial diet were treated with aqueous test solutions prepared from 10,000 ppm DMSO stock solutions by pipetting. After drying, Plutella eggs were pipetted through a plastic stencil onto a gel blotting paper and the plate was closed with it. The samples were assessed for mortality and growth inhibition in comparison to untreated samples 8 days after infestation. The following compounds gave an effect of at least 80% in at least one of the two categories (mortality or growth inhibition) at an application rate of 200 ppm: […]

[3] = test system: Myzus persicae (Green Peach Aphid); assay: Example B13: activity against Myzus persicae (green peach aphid), 96-well sucrose solution; settings: 120 h, application rate 50 ppm, 5 days after infestation
Excerpt: Example B13: Activity Against Myzus persicae (Green Peach Aphid)
Test compounds prepared from 10,000 ppm DMSO stock solutions were applied by a liquid handling robot into 96-well microtiter plates and mixed with a sucrose solution. Parafilm was stretched over the 96-well microtiter plate and a plastic stencil with 96 holes was placed onto the plate. Aphids were sieved into the wells directly onto the Parafilm. The infested plates were closed with a gel blotting card and a second plastic stencil and then turned upside down. The samples were assessed for mortality 5 days after infestation.

[4] = test system: Diabrotica Balteata (Corn Root Worm); assay: Example B1: Diabrotica balteata (corn root worm), maize sprouts sprayed, L2 larvae; settings: 96 h, application rate 200 ppm, 4 days after infestation, read-out: effect in at least one of the two categories (mortality or growth inhibition)
Procedure: Example B1: Diabrotica Balteata (Corn Root Worm)
Maize sprouts placed onto an agar layer in 24-well microtiter plates were treated with aqueous test solutions prepared from 10,000 ppm DMSO stock solutions by spraying. After drying, the plates were infested with L2 larvae (6 to 10 per well). The samples were assessed for mortality and growth inhibition in comparison to untreated samples 4 days after infestation.
The following compounds gave an effect of at least 80% in at least one of the two categories (mortality or growth inhibition) at an application rate of 200 ppm: […]

[5] = test system: Spodoptera littoralis (Egyptian Cotton Leaf Worm); assay: Example B9: Spodoptera littoralis (Egyptian cotton leaf worm), cotton leaf discs sprayed, L1 larvae; settings: foliar, 72 h, application rate 200 ppm, 3 days after infestation
Procedure: Example B9: Spodoptera littoralis (Egyptian Cotton Leaf Worm)
Cotton leaf discs were placed onto agar in 24-well microtiter plates and sprayed with aqueous test solutions prepared from 10,000 ppm DMSO stock solutions. After drying the leaf discs were infested with five L1 larvae. The samples were assessed for mortality, anti-feeding effect, and growth inhibition in comparison to untreated samples 3 days after infestation. Control of Spodoptera littoralis by a test sample is given when at least one of the three categories (i.e. mortality, anti-feedant effect, and growth inhibition) is higher than the untreated sample.

| SMILES | mortality at 500 ppm [1] [%] | percent effect (mortality or growth inhibition) at 200 ppm [2] [%] | other results |
| --- | --- | --- | --- |
| CC(c1ncnn1-c1ncccn1)N(CC1CC1)C(=O)c1ccc(-n2ccc(C(F)(F)F)n2)cc1 (stereo not shown) [P1, N-(cyclopropylmethyl)-N-[1-(2-pyrimidin-2-yl-1,2,4-triazol-3-yl)ethyl]-4-[3-(trifluoromethyl)pyrazol-1-yl]benzamide] | ≥ 80 |  |  |
| CC(c1ncnn1-c1ncccn1)N(CC1CC1)C(=O)c1ccc(C2(C#N)CC2)cc1 (stereo not shown) [P2, 4-(1-cyanocyclopropyl)-N-(cyclopropylmethyl)-N-[1-(2-pyrimidin-2-yl-1,2,4-triazol-3-yl)ethyl]benzamide] | ≥ 80 |  |  |
| CC(c1ncnn1-c1ncccn1)N(CC1CC1)C(=O)c1cccc(-c2ccc(C(F)(F)F)cc2)c1 (stereo not shown) [P3, N-(cyclopropylmethyl)-N-[1-(2-pyrimidin-2-yl-1,2,4-triazol-3-yl)ethyl]-3-[4-(trifluoromethyl)phenyl)benzamide] | ≥ 80 | ≥ 80 |  |
| CC(c1ncnn1-c1ncccn1)N(CC1CC1)C(=O)c1cccc(-c2ccc(F)cc2)c1 (stereo not shown) [P4, N-(cyclopropylmethyl)-3-(4-fluorophenyl)-N-[1-(2-pyrimidin-2-yl-1,2,4-triazol-3-yl)ethyl]benzamide] | ≥ 80 |  |  |
| CC(c1ncnn1-c1ncccn1)N(CC1CC1)C(=O)c1ccc(-c2ccc(F)cc2)cc1 (stereo not shown) [P5, N-(cyclopropylmethyl)-4-(4-fluorophenyl)-N-[1-(2-pyrimidin-2-yl-1,2,4-triazol-3-yl)ethyl]benzamide] | ≥ 80 | ≥ 80 |  |
| CC(c1ncnn1-c1ncccn1)N(CC1CC1)C(=O)c1cncc(-c2cccc(C(F)(F)F)c2)c1 (stereo not shown) [P8, N-(cyclopropylmethyl)-N-[1-(2-pyrimidin-2-yl-1,2,4-triazol-3-yl)ethyl]-5-[3-(trifluoromethyl)phenyl]pyridine-3-carboxamide] |  | ≥ 80 |  |
| CC(c1ncnn1-c1ncccn1)N(CC1CC1)C(=O)c1cc(-c2cccc(C(F)(F)F)c2)ccn1 (stereo not shown) [P9, N-(cyclopropylmethyl)-N-[1-(2-pyrimidin-2-yl-1,2,4-triazol-3-yl)ethyl]-4-[3-(trifluoromethyl)phenyl]pyridine-2-carboxamide] | ≥ 80 | ≥ 80 |  |
| CC(c1ncnn1-c1ncccn1)N(CC1CC1)C(=O)c1cnc(C2CC2)nc1 (stereo not shown) [P11, 2-cyclopropyl-N-(cyclopropylmethyl)-N-[1-(2-pyrimidin-2-yl-1,2,4-triazol-3-yl)ethyl]pyrimidine-5-carboxamide] |  |  | mortality at 50 ppm [3]: ≥ 80% |
| CC(c1ncnn1-c1ncccn1)N(CC1CC1)C(=O)c1cccc(-c2cccc(C(F)(F)F)c2)n1 (stereo not shown) [P15, N-(cyclopropylmethyl)-N-[1-(2-pyrimidin-2-yl-1,2,4-triazol-3-yl)ethyl]-6-[3-(trifluoromethyl)phenyl]pyridine-2-carboxamide] | ≥ 80 | ≥ 80 | mortality at 50 ppm [3]: ≥ 80% |
| CC(c1ncnn1-c1ncccn1)N(CC1CC1)C(=O)c1ccc(Oc2ccc(C(F)(F)F)cc2)cc1 (stereo not shown) [P16, N-(cyclopropylmethyl)-N-[1-(2-pyrimidin-2-yl-1,2,4-triazol-3-yl)ethyl]-4-[4-(trifluoromethyl)phenoxy]benzamide] |  |  | percent effect (mortality or growth inhibition) at 200 ppm [4]: ≥ 80% |
| CC(c1ncnn1-c1ncccn1)N(CC1CC1)C(=O)c1ccc(N2CCCCC2=O)cc1 (stereo not shown) [P17, N-(cyclopropylmethyl)-4-(2-oxo-1-piperidyl)-N-[1-(2-pyrimidin-2-yl-1,2,4-triazol-3-yl)ethyl]benzamide] |  |  | mortality at 50 ppm [3]: ≥ 80% |
| CC(c1ncnn1-c1ncccn1)N(CC1CC1)C(=O)c1ccc(-n2ccccc2=O)cc1 (stereo not shown) [P18, N-(cyclopropylmethyl)-4-(2-oxo-1-pyridyl)-N-[1-(2-pyrimidin-2-yl-1,2,4-triazol-3-yl)ethyl]benzamide] |  |  | mortality at 50 ppm [3]: ≥ 80% |
| CC(c1ncnn1-c1ncccn1)N(CC1CC1)C(=O)c1cc(N2CC(F)(F)C2)cc(C(F)(F)F)c1 (stereo not shown) [P20, N-(cyclopropylmethyl)-3-(3,3-difluoroazetidin-1-yl)-N-[1-(2-pyrimidin-2-yl-1,2,4-triazol-3-yl)ethyl]-5-(trifluoromethyl)benzamide] | ≥ 80 |  | mortality at 50 ppm [3]: ≥ 80% |
| CC(c1ncnn1-c1ncccn1)N(CC1CC1)C(=O)c1cc(Cl)cc(C(C)(C)C#N)n1 (stereo not shown) [P28, 4-chloro-6-(1-cyano-1-methyl-ethyl)-N-(cyclopropylmethyl)-N-[1-(2-pyrimidin-2-yl-1,2,4-triazol-3-yl)ethyl]pyridine-2-carboxamide] | ≥ 80 |  |  |
| CC(c1ncnn1-c1ncccn1)N(CC1CC1)C(=O)c1cc(-c2ccc(F)cc2)cc(C(F)(F)F)c1 (stereo not shown) [P36, N-(cyclopropylmethyl)-3-(4-fluorophenyl)-N-[1-(2-pyrimidin-2-yl-1,2,4-triazol-3-yl)ethyl]-5-(trifluoromethyl)benzamide] | ≥ 80 | ≥ 80 | percent control (mortality, anti-feedant effect or growth inhibition) at 200 ppm [5]: ≥ 80% |
| CC(c1ncnn1-c1ncccn1)N(CC1CC1)C(=O)c1cc(C(F)(F)F)cc(C2(C)CC2)c1 (stereo not shown) [P38, N-(cyclopropylmethyl)-3-(1-methylcyclopropyl)-N-[1-(2-pyrimidin-2-yl-1,2,4-triazol-3-yl)ethyl]-5-(trifluoromethyl)benzamide] | ≥ 80 | ≥ 80 |  |
| CC(c1ncnn1-c1ncccn1)N(CC1CC1)C(=O)c1cc(OCC2CC2)cc(C(F)(F)F)c1 (stereo not shown) [P47, 3-(cyclopropylmethoxy)-N-(cyclopropylmethyl)-N-[1-(2-pyrimidin-2-yl-1,2,4-triazol-3-yl)ethyl]-5-(trifluoromethyl)benzamide] | ≥ 80 | ≥ 80 | mortality at 50 ppm [3]: ≥ 80% |
| CC(c1ncnn1-c1ncccn1)N(CC1CC1)C(=O)c1cc(OC2CCC2)cc(C(F)(F)F)c1 (stereo not shown) [P48, 3-(cyclobutoxy)-N-(cyclopropylmethyl)-N-[1-(2-pyrimidin-2-yl-1,2,4-triazol-3-yl)ethyl]-5-(trifluoromethyl)benzamide] | ≥ 80 |  |  |
| CC(NC(=O)c1cc(OC(C)(C)C#N)cc(C(F)(F)F)c1)c1ncnn1-c1ncccn1 (stereo not shown) [P56, 3-(1-cyano-1-methyl-ethoxy)-N-[1-(2-pyrimidin-2-yl-1,2,4-triazol-3-yl)ethyl]-5-(trifluoromethyl)benzamide] |  | ≥ 80 | percent effect (mortality or growth inhibition) at 200 ppm [4]: ≥ 80%; percent control (mortality, anti-feedant effect or growth inhibition) at 200 ppm [5]: ≥ 80% |
| CC(NC(=O)c1cc(-c2cncc(Cl)c2)cc(C(F)(F)F)c1)c1ncnn1-c1ncccn1 (stereo not shown) [P63, 3-(5-chloro-3-pyridyl)-N-[1-(2-pyrimidin-2-yl-1,2,4-triazol-3-yl)ethyl]-5-(trifluoromethyl)benzamide] |  | ≥ 80 |  |
| CC(NC(=O)c1cc(-n2ccc(Cl)n2)nc(C(F)(F)F)c1)c1ncnn1-c1ncccn1 (stereo not shown) [P70, 2-(3-chloropyrazol-1-yl)-N-[1-(2-pyrimidin-2-yl-1,2,4-triazol-3-yl)ethyl]-6-(trifluoromethyl)pyridine-4-carboxamide] | ≥ 80 | ≥ 80 | percent control (mortality, anti-feedant effect or growth inhibition) at 200 ppm [5]: ≥ 80% |
| CC(c1ncnn1-c1ncccn1)N(CC1CC1)C(=O)c1cc(C(F)(F)F)cc(C(F)(F)C2CCC2)c1 (stereo not shown) [P71, 3-[cyclobutyl(difluoro)methyl]-N-(cyclopropylmethyl)-N-[1-(2-pyrimidin-2-yl-1,2,4-triazol-3-yl)ethyl]-5-(trifluoromethyl)benzamide] | ≥ 80 |  |  |
